Measurements published in the supplement of paper PMC8149375.

Columns and labels:
Details in all cases: treatment: drug + dasatinib (fixed dose, not stated); 5 days
769-P [1] = assay: AUC of dose-response viability curve, drug + dasatinib, normalised to DMSO (arbitrary (AUC of normalised viability)); higher = less growth inhibition
Method: (§1)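 Primary HTS combination arm: 8 RCC cell lines treated with 8 doses (up to 10 uM) of each library drug plus a fixed dose of dasatinib (dose not stated) for 5 days; viability read by CellTiter-Glo and normalised to DMSO. GI50 was fitted with XLfit, AUC is the area under the dose-response curve, and minimum viability is the lowest fraction of DMSO viability across doses.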

ACHN [2] = assay: as above
Method: as §1

A498 [3] = assay: as above
Method: as §1

786-O [4] = assay: as above
Method: as §1

SN12C [5] = assay: as above
Method: as §1

UO-31 [6] = assay: as above
Method: as §1

CAKI-1 [7] = assay: as above
Method: as §1

TK-10 [8] = assay: as above
Method: as §1

769-P [9] = assay: minimum viability across doses, drug + dasatinib, relative to DMSO (fraction); higher = less growth inhibition
Method: as §1

ACHN [10] = assay: as above
Method: as §1

A498 [11] = assay: as above
Method: as §1

786-O [12] = assay: as above
Method: as §1

SN12C [13] = assay: as above
Method: as §1

UO-31 [14] = assay: as above
Method: as §1

CAKI-1 [15] = assay: as above
Method: as §1

TK-10 [16] = assay: as above
Method: as §1

769-P [17] = assay: GI50 of drug in presence of dasatinib; higher = less potent
Method: as §1

ACHN [18] = assay: as above
Method: as §1

A498 [19] = assay: as above
Method: as §1

786-O [20] = assay: as above
Method: as §1

SN12C [21] = assay: as above
Method: as §1

UO-31 [22] = assay: as above
Method: as §1

CAKI-1 [23] = assay: as above
Method: as §1

TK-10 [24] = assay: as above
Method: as §1

Compound	GI50 of drug (ACHN [18]) [nM]	GI50 of drug (786-O [20]) [nM]	AUC of dose-response viability curve (769-P [1])	AUC of dose-response viability curve (ACHN [2])	AUC of dose-response viability curve (A498 [3])	AUC of dose-response viability curve (786-O [4])	AUC of dose-response viability curve (SN12C [5])	AUC of dose-response viability curve (UO-31 [6])	AUC of dose-response viability curve (CAKI-1 [7])	AUC of dose-response viability curve (TK-10 [8])	minimum viability across doses (769-P [9])	minimum viability across doses (ACHN [10])	minimum viability across doses (A498 [11])	minimum viability across doses (786-O [12])	minimum viability across doses (SN12C [13])	minimum viability across doses (UO-31 [14])	minimum viability across doses (CAKI-1 [15])	minimum viability across doses (TK-10 [16])	GI50 of drug (769-P [17]) [nM]	GI50 of drug (A498 [19]) [nM]	GI50 of drug (SN12C [21]) [nM]	GI50 of drug (UO-31 [22]) [nM]	GI50 of drug (CAKI-1 [23]) [nM]	GI50 of drug (TK-10 [24]) [nM]
Nc1cc(C(F)(F)F)c(-c2cc(N3CCOCC3)nc(N3CCOCC3)n2)cn1 [BKM120 (NVP-BKM120)] + Cc1nc(Nc2ncc(C(=O)Nc3c(C)cccc3Cl)s2)cc(N2CCN(CCO)CC2)n1 [dasatinib]	205	81.7	1.83	1.48	2.49	1.29	1.84	2.27	1.51	1.84	0.0577	0.0632	0.101	0.00305	0.0529	0.00967	0.0204	0.0741	478	1250	914	663	244	505
CC(C)c1cnn2c(NCc3ccccc3)cc(NCCCCCCN)nc12.Cl [BS-181 HCl] + Cc1nc(Nc2ncc(C(=O)Nc3c(C)cccc3Cl)s2)cc(N2CCN(CCO)CC2)n1 [dasatinib]	2870	7190	2.55	1.94	3.45	2.72	2.46	4.39	2.34	2.63	0.672	0.344	0.942	0.438	0.67	1.11	0.6	0.657	> 10000	> 10000	> 10000	> 10000	> 10000	> 10000
Cc1nc(NC(=O)N2CCC[C@H]2C(N)=O)sc1-c1ccnc(C(C)(C)C(F)(F)F)c1 [BYL719] + Cc1nc(Nc2ncc(C(=O)Nc3c(C)cccc3Cl)s2)cc(N2CCN(CCO)CC2)n1 [dasatinib]	11.6	69.8	2.29	1.45	3.24	1.56	2.23	3.72	2.14	2.15	0.393	0.242	0.54	0.114	0.407	0.0931	0.162	0.305	3680	> 10000	> 10000	5560	1720	2790
O=c1[nH]c2ccc(Cl)cc2c(N[C@@H]2CN3CCC2CC3)c1-c1nc2ccccc2[nH]1 [CHIR-124] + Cc1nc(Nc2ncc(C(=O)Nc3c(C)cccc3Cl)s2)cc(N2CCN(CCO)CC2)n1 [dasatinib]	11.2	37.4	1.31	0.737	2.13	0.817	1.76	1.52	1.3	1.37	0.0198	0.018	0.0177	0.00497	0.00873	0.00945	0.0428	0.151	101	293	1000	73.9	87.1	70.6

Continued, in another order:

GI50 of drug (ACHN [18]) [nM]	GI50 of drug (786-O [20]) [nM]	Compound	AUC of dose-response viability curve (769-P [1])	AUC of dose-response viability curve (ACHN [2])	AUC of dose-response viability curve (A498 [3])	AUC of dose-response viability curve (786-O [4])	AUC of dose-response viability curve (SN12C [5])	AUC of dose-response viability curve (UO-31 [6])	AUC of dose-response viability curve (CAKI-1 [7])	AUC of dose-response viability curve (TK-10 [8])	minimum viability across doses (769-P [9])	minimum viability across doses (ACHN [10])	minimum viability across doses (A498 [11])	minimum viability across doses (786-O [12])	minimum viability across doses (SN12C [13])	minimum viability across doses (UO-31 [14])	minimum viability across doses (CAKI-1 [15])	minimum viability across doses (TK-10 [16])	GI50 of drug (769-P [17]) [nM]	GI50 of drug (A498 [19]) [nM]	GI50 of drug (SN12C [21]) [nM]	GI50 of drug (UO-31 [22]) [nM]	GI50 of drug (CAKI-1 [23]) [nM]	GI50 of drug (TK-10 [24]) [nM]
147	> 10000	COC(=O)c1ccc2c(c1)NC(=O)/C2=C(\Nc1ccc(N(C)C(=O)CN2CCN(C)CC2)cc1)c1ccccc1 [BIBF1120 (Vargatef)] + Cc1nc(Nc2ncc(C(=O)Nc3c(C)cccc3Cl)s2)cc(N2CCN(CCO)CC2)n1 [dasatinib]	2.47	1.73	3.35	2.98	2.3	2.64	1.77	2.88	0.656	0.23	0.664	0.694	0.412	0.128	0.125	0.637	> 10000	> 10000	2620	1730	430	> 10000
411	695	O=C(NCCCNc1nc(Nc2cccc(NC(=O)N3CCCC3)c2)ncc1I)c1cccs1 [BX-795] + Cc1nc(Nc2ncc(C(=O)Nc3c(C)cccc3Cl)s2)cc(N2CCN(CCO)CC2)n1 [dasatinib]	2.08	1.74	3.06	1.72	2.44	3.15	1.77	2.09	0.0706	0.155	0.74	0.00318	0.334	0.015	0.0814	0.0986	1590	> 10000	4410	3020	457	1780
1280	937	O=C(Nc1cccc(Nc2ncc(Br)c(NCCc3cnc[nH]3)n2)c1)N1CCCC1 [BX-912] + Cc1nc(Nc2ncc(C(=O)Nc3c(C)cccc3Cl)s2)cc(N2CCN(CCO)CC2)n1 [dasatinib]	2.3	1.9	2.97	1.78	2.23	3.19	1.8	2.25	0.335	0.168	0.365	0.0673	0.0907	0.288	0.0425	0.144	4600	5820	1180	9130	502	2590
